In the supplement of paper PMC10307832:

Each cell line was assayed with CCOC1=CC=CC=C1N=NC2=C(NN(C2=O)C3=NC(=CS3)C4=CC=CC=C4)C [BAM7] + O=C(CCCCCCC(=O)Nc1ccccc1)NO [Vorinostat] (partner 1 µM) (assay: relative viability (nuclei count vs DMSO), 5 days (fraction); higher = more cells survive). Details: first compound 15.81 µM.
Method in brief: (§1)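 Relative viability was taken as the ratio of nuclei in treated wells to nuclei in vehicle wells. Lung cancer cell lines in 1536-well plates received compounds by pin tool one day after seeding, either one drug alone or a fixed anchor-drug dose plus five library-drug doses (not always all listed) in √10 steps. Nuclei were counted on 4× images after 5 days of treatment, and values are medians of duplicate plates.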

Cell Line	relative viability
NCI-H2347	0.516
SK-LU-1	0.784
NCI-H1395	0.645
201T	0.716
NCI-H1915	0.537
HCC-827	1.01
LXF-289	0.84
NCI-H23	0.629
NCI-H647	0.556
CAL-12T	0.751
NCI-H1651	0.661
EPLC-272H	0.477
NCI-H2228	0.552
NCI-H1355	0.544
NCI-H3122	1.02
NCI-H1437	0.616
NCI-H1755	0.79
NCI-H2023	0.605
HCC-15	0.605
NCI-H1793	0.726
PC-14	0.697
EKVX	0.457
LC-2-ad	0.707
NCI-H1944	0.396
NCI-H1975	0.631
RERF-LC-KJ	0.485
ABC-1	0.983
NCI-H358	0.528
NCI-H650	0.518
PC-3 [JPC-3]	0.775

Same assay, conditions: first compound 50 µM

Cell Line	relative viability
NCI-H441	0.773
NCI-H661	0.774
NCI-H1734	0.832
NCI-H460	0.647
NCI-H2347	0.588
SK-LU-1	0.847
NCI-H1395	0.939
201T	0.71
NCI-H1915	0.515
HCC-827	0.789
LXF-289	0.7
NCI-H23	0.792
NCI-H647	0.712
CAL-12T	0.655
NCI-H1651	0.612
EPLC-272H	0.358
NCI-H2228	0.59

Cell Line	relative viability
NCI-H1355	0.566
NCI-H3122	1.14
NCI-H1437	0.677
NCI-H1755	0.844
NCI-H2023	0.589
HCC-15	0.667
NCI-H1793	1.08
PC-14	0.7
EKVX	0.513
LC-2-ad	0.656
NCI-H1944	0.43
NCI-H1975	0.616
RERF-LC-KJ	0.416
ABC-1	1.18
NCI-H358	0.667
NCI-H650	0.492
PC-3 [JPC-3]	0.638

What follows are cell lines tested with CCn1c(-c2nonc2N)nc2c(C#CC(C)(C)O)ncc(OC[C@H]3CCCNC3)c21 + Cc1cc(Nc2cc(N3CCN(C)CC3)nc(Sc3ccc(NC(=O)C4CC4)cc3)n2)n[nH]1 [Tozasertib] (partner 0.1 µM) in the same assay as above. Details: first compound 0.01 µM.
Method in brief: as §1

Cell Line	relative viability
NCI-H441	0.699
NCI-H661	0.362
NCI-H1734	0.262
NCI-H460	0.533
NCI-H2347	0.6
SK-LU-1	0.335
NCI-H1395	0.776
201T	0.954
